The source of these data is patent publication US20240307426A1, “USE OF SGLT-2 INHIBITORS FOR THE PREVENTION AND/OR TREATMENT OF RENAL DISEASES IN NON-HUMAN MAMMALS” (BOEHRINGER INGELHEIM VETMEDICA GMBH, priority 2021, published 2024).

For this experiment, the system named is client owned dogs with CKD. The experiment in a line: Exploratory clinical field trial in client owned dogs with CKD (Example 4). It counts as in vivo, dog. To be noted: 0.05 mg/kg bodyweight orally once daily. The protocol:
Client owned patients diagnosed with CKD diagnosed via physical examination and biomarker levels are orally treated once daily with velagliflozin 0.05 mg/kg bodyweight. During the study period the body weight, body condition score, biomarker levels (creatinine and SDMA), proteinuria, presence of concomitant conditions and need for further medication are examined on regular basis during the visits at the site by the investigator. The parameters examined are creatinine and SDMA levels, proteinuria, blood pressure and hydration status. Additionally, variables as the delayed onset of renal failure, survival time of the dog patients, IRIS stage progression and renal related mortality and/or morbidity are observed.

With `N#Cc1ccc([C@@H]2O[C@H](CO)[C@@H](O)[C@H](O)[C@H]2O)cc1Cc1ccc(C2CC2)cc1` [velagliflozin, Velagliflozin], the “effect on renal function” value is reported as “beneficial effect on renal function” and the “progression of the disease” value is listed as “delay in progression of the disease”.
